In patent publication US20060287247A1, “Halogen-substituted thienyl compounds” (priority 2001, published 2006):

The molecules below were run on C. albicans ATCC 38247 (assay: NCCLS broth microdilution MIC (antifungal)). Conditions: E = C. albicans ATCC 38247.
Format: cell-based
Description: (§1) Compounds according to this invention were screened for their in vitro activities against selected species of bacteria and fungi. The minimal inhibition concentration (MIC) of these compounds was determined using the National Committee for Clinical Laboratory Standards (NCCLS) broth microdilution assay in microtiter plates, as set forth in: (1) the guidelines of the National Committee for Clinical Laboratory Standards (NCCLS) Document M7-A4 (NCCLS, 1997); (2) the guidelines of the National Committee for Clinical Laboratory Standards (NCCLS) Document M11-A4 (NCCLS, 1997); and (3) the guidelines and reference method of the National Committee for Clinical Laboratory Standards (NCCLS) Document M27-T (NCCLS, 1995). For antifungal essays, the method recommended in Murray, P R., 1995 Manual of Clinical Microbiology (ASM Press, Washington, D.C.), was employed. […]
With `CN(C)CCCNC(=O)CCNC(=O)c1cc(NC(=O)c2cc(NC(=O)CCNC(=O)c3cc(NC(=O)c4cc(NC(=O)c5ccc(Br)s5)cn4C)cn3C)cn2C)cn1C` [Id-18] the “Minimum Inhibitory Concentration (MIC)” value was >32 mg/L. For `CC(C)N(CCNC(=O)CCNC(=O)c1cc(NC(=O)c2cc(NC(=O)CCNC(=O)c3cc(NC(=O)c4cc(NC(=O)c5ccc(Br)s5)cn4C)cn3C)cn2C)cn1C)C(C)C` [Id-19], the “Minimum Inhibitory Concentration (MIC)” value was >32 mg/L. In the case of `Cn1cc(NC(=O)c2cc(NC(=O)CCNC(=O)c3cc(NC(=O)c4cc(NC(=O)c5ccc(Br)s5)cn4C)cn3C)cn2C)cc1C(=O)NCCC(=O)NCCCCCCN` [Id-21], the “Minimum Inhibitory Concentration (MIC)” value is reported as >32 mg/L.

These molecules were tested on S. pneumoniae ATCC 49619 (assay: NCCLS broth microdilution MIC). Conditions: F = S. pneumoniae ATCC 49619.
Format: cell-based, Streptococcus pneumoniae
Description: as §1
In the case of `CN(C)CCCNC(=O)CCNC(=O)c1cc(NC(=O)c2cc(NC(=O)CCNC(=O)c3cc(NC(=O)c4cc(NC(=O)c5ccc(Br)s5)cn4C)cn3C)cn2C)cn1C` [Id-18], the “Minimum Inhibitory Concentration (MIC)” value is reported as “+++ (+++ = MIC ≦4)”. With `CC(C)N(CCNC(=O)CCNC(=O)c1cc(NC(=O)c2cc(NC(=O)CCNC(=O)c3cc(NC(=O)c4cc(NC(=O)c5ccc(Br)s5)cn4C)cn3C)cn2C)cn1C)C(C)C` [Id-19] the “Minimum Inhibitory Concentration (MIC)” value was “+++ (+++ = MIC ≦4)”. `Cn1cc(NC(=O)c2cc(NC(=O)CCNC(=O)c3cc(NC(=O)c4cc(NC(=O)c5ccc(Br)s5)cn4C)cn3C)cn2C)cc1C(=O)NCCC(=O)NCCCCCCN` [Id-21] was tested, and the “Minimum Inhibitory Concentration (MIC)” value was “+++ (+++ = MIC ≦4)”.

The molecules below were run on B. cereus ATCC 11778 (assay: NCCLS broth microdilution MIC). Conditions: C = B. cereus ATCC 11778.
Format: cell-based, Bacillus cereus
Description: as §1
With `CN(C)CCCNC(=O)CCNC(=O)c1cc(NC(=O)c2cc(NC(=O)CCNC(=O)c3cc(NC(=O)c4cc(NC(=O)c5ccc(Br)s5)cn4C)cn3C)cn2C)cn1C` [Id-18] the “Minimum Inhibitory Concentration (MIC)” value was “+ (+ = MIC from 12 to 32, inclusive)”. In the case of `CC(C)N(CCNC(=O)CCNC(=O)c1cc(NC(=O)c2cc(NC(=O)CCNC(=O)c3cc(NC(=O)c4cc(NC(=O)c5ccc(Br)s5)cn4C)cn3C)cn2C)cn1C)C(C)C` [Id-19], the “Minimum Inhibitory Concentration (MIC)” value is reported as “+++ (+++ = MIC ≦4)”. `Cn1cc(NC(=O)c2cc(NC(=O)CCNC(=O)c3cc(NC(=O)c4cc(NC(=O)c5ccc(Br)s5)cn4C)cn3C)cn2C)cc1C(=O)NCCC(=O)NCCCCCCN` [Id-21] was tested, and the “Minimum Inhibitory Concentration (MIC)” value was “+++ (+++ = MIC ≦4)”.

Each molecule was assayed on 5′-AAAAAGCAAAAA-3′ (assay: not given). Conditions: DNA sequence 5′-AAAAAGCAAAAA-3′; pH 7.0, 22° C.
Format: binding
Description: (§2) A number of compounds according to this invention were screened for their ability to bind to three DNA sites, using DNase I footprinting. Generally, the procedure described in Dervan, WO 98/50582 (1998), was followed.
(§3) A plasmid was prepared by hybridizing two sets of 5′-phosphorylated complementary oligonucleotides, one set being
(§4) The target sites and their complements are identified in bold underline.
(§5) The resulting duplexes were ligated to the large pUC19 AvaI/SalI restriction fragment. The 3′-P32 end-labeled EcoRI/PvuII fragment was prepared by digesting the plasmid with EcoRI and PvuII with simultaneous fill-in using Sequenase v. 2.0, [alpha-P32]-deoxyadenosine-5′-triphosphate, and [alpha-P32]-thymidine-5′-triphosphate, and isolating the cloned fragment by nondenaturing gel electrophoresis. Standard methods were used for all DNA manipulations, including A and G sequencing. See, e.g., Maxam et al., Methods Enzymol., 1980, 65, 499-560; Iverson et al., Methods Enzymol., 1987, 15, 7823-7830; and Sambrook et al., 1989, Molecular Cloning, 2nd ed., Cold Spring Harbor Laboratory Press: Cold Spring Harbor, N.Y.
(§6) Quantitative DNase I footprint titration experiments were carried out as described previously (Dervan, WO 98/50582, 1998, “Dervan '582”) with the following changes. All reactions were carried out in a total volume of 400 μL, with polyamide stock solution or water added to 15,000 cpm radiolabeled restriction fragment affording final solution conditions of 10 mM Tris.HCl, 10 mM KCl, 10 mM MgCl2, 5 mM CaCl2, pH 7.0 and 0.01 nM, 0.1 nM, 1.0 nM, 10.0 nM polyamide or no polyamide for reference lanes. The polyamides were allowed to equilibrate at 22° C. for 16 hr. Footprinting reactions were initiated with addition of 10 μL of a DNase I stock solution (at the appropriate concentration to give ˜50% intact DNA) containing 1 mM DTT and allowed to proceed for 7 min at 22° C. The reactions were stopped, ethanol precipitated, resuspended in loading buffer, heat denatured, and placed on ice as described in Dervan '582. The reaction products were separated on a precast 8% polyacrylamide denaturing sequencing Castaway gel with 32 preformed wells from Stratagene in 1× TBE at 2000 V. Gels were dried according to the manufacturer's instructions and exposed to a storage phosphor screen (Molecular Dynamics). Quantitation and data analysis were carried out as described in Dervan '582.
`CN(C)CCCNC(=O)CCNC(=O)c1cc(NC(=O)c2cc(NC(=O)CCNC(=O)c3cc(NC(=O)c4cc(NC(=O)c5ccc(Br)s5)cn4C)cn3C)cn2C)cn1C` [Id-18] was tested, and the “Equilibrium Association Constant (Ka)” value was “≧1 × 10^11 M^−1”. With `CC(C)N(CCNC(=O)CCNC(=O)c1cc(NC(=O)c2cc(NC(=O)CCNC(=O)c3cc(NC(=O)c4cc(NC(=O)c5ccc(Br)s5)cn4C)cn3C)cn2C)cn1C)C(C)C` [Id-19] the “Equilibrium Association Constant (Ka)” value was 5e+09 M⁻¹. `Cn1cc(NC(=O)c2cc(NC(=O)CCNC(=O)c3cc(NC(=O)c4cc(NC(=O)c5ccc(Br)s5)cn4C)cn3C)cn2C)cc1C(=O)NCCC(=O)NCCCCCCN` [Id-21] was tested, and the “Equilibrium Association Constant (Ka)” value was 5e+10 M⁻¹.

These molecules were tested on 5′-AAAAAGACAAAAA-3′ (assay: not given). Conditions: DNA sequence 5′-AAAAAGACAAAAA-3′; pH 7.0, 22° C.
Format: binding
Description: as §2, §3, §4, §5, §6
With `CN(C)CCCNC(=O)CCNC(=O)c1cc(NC(=O)c2cc(NC(=O)CCNC(=O)c3cc(NC(=O)c4cc(NC(=O)c5ccc(Br)s5)cn4C)cn3C)cn2C)cn1C` [Id-18] the “Equilibrium Association Constant (Ka)” value was “≧1 × 10^11 M^−1”. With `CC(C)N(CCNC(=O)CCNC(=O)c1cc(NC(=O)c2cc(NC(=O)CCNC(=O)c3cc(NC(=O)c4cc(NC(=O)c5ccc(Br)s5)cn4C)cn3C)cn2C)cn1C)C(C)C` [Id-19] the “Equilibrium Association Constant (Ka)” value was 5e+09 M⁻¹. In the case of `Cn1cc(NC(=O)c2cc(NC(=O)CCNC(=O)c3cc(NC(=O)c4cc(NC(=O)c5ccc(Br)s5)cn4C)cn3C)cn2C)cc1C(=O)NCCC(=O)NCCCCCCN` [Id-21], the “Equilibrium Association Constant (Ka)” value is reported as 1e+10 M⁻¹.

Each molecule was assayed on 5′-AAAAAGTACAAAAA-3′ (assay: not given). Conditions: DNA sequence 5′-AAAAAGTACAAAAA-3′; pH 7.0, 22° C.
Format: binding
Description: as §2, §3, §4, §5, §6
For `CN(C)CCCNC(=O)CCNC(=O)c1cc(NC(=O)c2cc(NC(=O)CCNC(=O)c3cc(NC(=O)c4cc(NC(=O)c5ccc(Br)s5)cn4C)cn3C)cn2C)cn1C` [Id-18], the “Equilibrium Association Constant (Ka)” value was “≧1 × 10^11 M^−1”. `CC(C)N(CCNC(=O)CCNC(=O)c1cc(NC(=O)c2cc(NC(=O)CCNC(=O)c3cc(NC(=O)c4cc(NC(=O)c5ccc(Br)s5)cn4C)cn3C)cn2C)cn1C)C(C)C` [Id-19] was tested, and the “Equilibrium Association Constant (Ka)” value was “≧1 × 10^11 M^−1”. In the case of `Cn1cc(NC(=O)c2cc(NC(=O)CCNC(=O)c3cc(NC(=O)c4cc(NC(=O)c5ccc(Br)s5)cn4C)cn3C)cn2C)cc1C(=O)NCCC(=O)NCCCCCCN` [Id-21], the “Equilibrium Association Constant (Ka)” value is reported as “≧1 × 10^11 M^−1”.

These molecules were tested on S. aureus ATCC 29213 (assay: NCCLS broth microdilution MIC). Conditions: A = S. aureus ATCC 29213.
Format: cell-based, Staphylococcus aureus
Description: as §1
For `CN(C)CCCNC(=O)CCNC(=O)c1cc(NC(=O)c2cc(NC(=O)CCNC(=O)c3cc(NC(=O)c4cc(NC(=O)c5ccc(Br)s5)cn4C)cn3C)cn2C)cn1C` [Id-18], the “Minimum Inhibitory Concentration (MIC)” value was >32 mg/L. For `CC(C)N(CCNC(=O)CCNC(=O)c1cc(NC(=O)c2cc(NC(=O)CCNC(=O)c3cc(NC(=O)c4cc(NC(=O)c5ccc(Br)s5)cn4C)cn3C)cn2C)cn1C)C(C)C` [Id-19], the “Minimum Inhibitory Concentration (MIC)” value was >32 mg/L. In the case of `Cn1cc(NC(=O)c2cc(NC(=O)CCNC(=O)c3cc(NC(=O)c4cc(NC(=O)c5ccc(Br)s5)cn4C)cn3C)cn2C)cc1C(=O)NCCC(=O)NCCCCCCN` [Id-21], the “Minimum Inhibitory Concentration (MIC)” value is reported as >32 mg/L.

The molecules below were run on E. coli ATCC 25922 (assay: NCCLS broth microdilution MIC). Conditions: D = E. coli ATCC 25922.
Format: cell-based
Description: as §1
With `CN(C)CCCNC(=O)CCNC(=O)c1cc(NC(=O)c2cc(NC(=O)CCNC(=O)c3cc(NC(=O)c4cc(NC(=O)c5ccc(Br)s5)cn4C)cn3C)cn2C)cn1C` [Id-18] the “Minimum Inhibitory Concentration (MIC)” value was >32 mg/L. `CC(C)N(CCNC(=O)CCNC(=O)c1cc(NC(=O)c2cc(NC(=O)CCNC(=O)c3cc(NC(=O)c4cc(NC(=O)c5ccc(Br)s5)cn4C)cn3C)cn2C)cn1C)C(C)C` [Id-19] was tested, and the “Minimum Inhibitory Concentration (MIC)” value was >32 mg/L. For `Cn1cc(NC(=O)c2cc(NC(=O)CCNC(=O)c3cc(NC(=O)c4cc(NC(=O)c5ccc(Br)s5)cn4C)cn3C)cn2C)cc1C(=O)NCCC(=O)NCCCCCCN` [Id-21], the “Minimum Inhibitory Concentration (MIC)” value was >32 mg/L.

What follows are molecules tested on E. faecalis ATCC 29212 (assay: NCCLS broth microdilution MIC). Conditions: B = E. faecalis ATCC 29212.
Format: cell-based, Enterococcus faecalis
Description: as §1
In the case of `CN(C)CCCNC(=O)CCNC(=O)c1cc(NC(=O)c2cc(NC(=O)CCNC(=O)c3cc(NC(=O)c4cc(NC(=O)c5ccc(Br)s5)cn4C)cn3C)cn2C)cn1C` [Id-18], the “Minimum Inhibitory Concentration (MIC)” value is reported as “++ (++ = MIC between 4 and 12)”. `CC(C)N(CCNC(=O)CCNC(=O)c1cc(NC(=O)c2cc(NC(=O)CCNC(=O)c3cc(NC(=O)c4cc(NC(=O)c5ccc(Br)s5)cn4C)cn3C)cn2C)cn1C)C(C)C` [Id-19] was tested, and the “Minimum Inhibitory Concentration (MIC)” value was “+++ (+++ = MIC ≦4)”. In the case of `Cn1cc(NC(=O)c2cc(NC(=O)CCNC(=O)c3cc(NC(=O)c4cc(NC(=O)c5ccc(Br)s5)cn4C)cn3C)cn2C)cc1C(=O)NCCC(=O)NCCCCCCN` [Id-21], the “Minimum Inhibitory Concentration (MIC)” value is reported as “+++ (+++ = MIC ≦4)”.
